# Tests used:
# Assay type in all cases: cell-based, human
# LC3B = assay: Immunocytochemistry of LC3B (autophagosomes) in LNCaP cells; conditions: 6 hrs, Baflomycin A1 (100 nM), control cells and cells under combination treatments, M4N 80 μM
# Text: […] After permeabilized by 0.2% Tryton X-100 and 1% goat serum diluted in PBS (−), the cells were blocked by PBS (−) containing 5% goat serum.
# BNIP3 = assay: Western blotting of BNIP3 in LNCaP cells, normoxic or hypoxic; conditions: normoxic or hypoxic condition, M4N 80 μM
# Text: LNCaP human prostate cancer, DU145 human prostate cancer, PC3 human prostate cancer, MCF-7 human breast cancer, MDA-MB-231 human breast cancer, MDA-MB-468 human breast cancer, HT29 human colon cancer, K562 human myelogenous leukaemia, HepG2 human hepatoma, Hep3B human hepatoma, and LN229 human glioblastoma cancer cell lines were purchased from American Type Culture Collection (Manassas, Va.). OC24 human ascites ovarian cancer cell line was a generous gift from Dr. XXX (Johns Hopkins University, MD). LNCaP cell line was cultured in RPMI1640 medium supplemented with glucose (14 mM), pyruvate (1 mM), and fetal bovine serum (FBS) (10%). DU145 cell line was cultured in MEM supplemented with non-essential amino acids, glucose (21 mM), pyruvate (1 mM), and FBS (10%). PC3 cell line was cultured in F-12K medium supplemented with FBS (10%). MCF-7 cell line was cultured in DMEM supplemented with FBS (10%). OC24 cell line was cultured in RPMI1640 medium supplemented with FBS (10%) as suspension culture. MDA-MB-231 and 468 cell lines were cultured in Leibovitz's L15 medium supplemented with FBS (10%) under air. HT29 cell line was cultured in DMEM supplemented with glucose (25 mM) and FBS (10%). K562 cell line was cultured in RPMI1640 supplemented with FBS (10%). […] The signals were detected by western blot chemiluminescence reagent plus (New England Nuclear Life Science Products, Boston, Mass.). […]
# BNIP3L = assay: Western blotting of BNIP3L in LNCaP cells; conditions: M4N 80 μM
# Description: The sample volumes were adjusted by the total protein amount. Protein assay was performed by Bio-Rad Protein Assay (Bio-Rad Laboratories, Inc. Hercules, Calif.). The samples were resolved by the standard SDS-polyacrylamide gel electrophoresis and transferred to nitrocellulose membrane (Amersham Biosciences, Bjorkgatan, Sweden). The membranes were blocked with skim milk, and incubated with primary antibodies at 4° C. overnight and then with secondary antibody conjugated with horse radish peroxidase at room temperature for 2 hrs. The signals were detected by western blot chemiluminescence reagent plus (New England Nuclear Life Science Products, Boston, Mass.). BNIP3 is a member of Bcl-2 family proteins which sends pro-apoptotic signal to mitochondria and induces mitochondrial membrane potential depolarization. […] This implies that BNIP3 is involved in autophagy as well as cell death. […] Since BNIP3 is known to be activated more under hypoxic conditions (24), BNIP3 expression was examined in both normoxic and hypoxic conditions (FIGS. 3A&B). […] Previously it was shown that BNIP3 expression is augmented by hypoxia through both […] (HIF)1α-dependent and nondependent pathways (24).
# caspase-3 or 9 = assay: Western blotting of caspase-3 and 9 cleavage in HepG2 cells; conditions: HepG2, 17 hrs; M4N 80 μM, UCN-01 5 μM
# Description: After cells had been grown in […] flasks and treated with reagents, the cells were washed with PBS (−) three times and suspended in RIPA buffer (150 mM NaCl, 50 mM Tris-HCl (pH 8.0), 0.1% SDS, 1% NP40, and 0.5% deoxycholate) supplemented with protease inhibitor cocktail (Calbiochem, San Diego, Calif.). The sample volumes were adjusted by the total protein amount. Protein assay was performed by Bio-Rad Protein Assay (Bio-Rad Laboratories, Inc. Hercules, Calif.). The samples were resolved by the standard SDS-polyacrylamide gel electrophoresis and transferred to nitrocellulose membrane (Amersham Biosciences, Bjorkgatan, Sweden). […] The signals were detected by western blot chemiluminescence reagent plus (New England Nuclear Life Science Products, Boston, Mass.).
# The effect of the combination treatments on cell death and autophagy was examined in two cell lines other than LNCaP cells. […] On the contrary caspase-7 cleavage was detected in MCF-7 cells treated with UCN-01 treatment alone, the combination treatments of M4N with either etoposide or UCN-01 (FIG. 4C). […] On the contrary a great deal of caspase-7 cleavage product was detected in HepG2 cells treated with UCN-01 or the combination treatment of M4N with UCN-01 while a small amount of caspase-7 cleavage product was detected in the cells treated with etoposide or rapamycin regardless of a concomitant treatment with M4N (FIG. 4C).
Compound,net amount of autophagosomes (LC3B staining) (LC3B),BNIP3 protein expression (BNIP3),BNIP3L expression (BNIP3L),caspase-3 cleaved product (caspase-3 or 9)
"COc1ccc(C[C@@H](C)[C@@H](C)Cc2ccc(OC)c(OC)c2)cc1OC [M4N, Tetra-O-methyl nordihyroguaiaretic acid]",reduced the net amount of autophagosomes,blocks BNIP3 protein expression,only slightly reduced,–
"CN[C@@H]1C[C@H]2O[C@@](C)([C@@H]1OC)n1c3ccccc3c3c4c(c5c6ccccc6n2c5c31)C(=O)N[C@H]4O [UCN-01, 7-hydroxystaurosporine]",–,–,–,small amount

# Reference: patent US9101567B2, “Suppression of cancer growth and metastasis using nordihydroguaiaretic acid derivatives with 7-hydroxystaurosporine” (The Johns Hopkins University, priority 2010, dated 2015)
